Columns and labels:
recombinant RSV complex = recombinant RSV complex (Human respiratory syncytial virus A, UniProt P28887); assay: RSV polymerase inhibition assay; format: biochemical; conditions: 10 nM recombinant RSV complex, 2 h at 30° C.; Table E = <1 μM, Table F = <50 μM; read-out: IC50
Method: Standard RSV polymerase assays were conducted in the presence of 10 nM recombinant RSV complex in a reaction buffer containing Tris-HCl pH7.5, 6 mM MgCl2, and other additives and substrates including RNA oligonucleotides and radionucleotides. Standard reactions were incubated in 96-well plate format for 2 h at 30° C., in the presence of increasing concentration of inhibitor. The reaction was stopped with 90 μL of 0.1M EDTA, and the reaction product was transferred to a “reading” 96-well plate. After washing of the plate, radiolabeled RNA products were detected according to standard procedures with a Trilux Topcount scintillation counter. The compound concentration at which the enzyme-catalyzed rate was reduced by 50% (IC50) was calculated by fitting the data to a non-linear regression (sigmoidal).

[1] = tested on: RSV subgenomic replicon 395 HeLa and APC126; assay: RSV subgenomic replicon assay (Renilla luciferase); format: cell-based; conditions: human respiratory syncytial virus; RSV replicon cells (395 HeLa 7 days or APC126 3 days); Table G = less than 1 μM, Table H = equal to or higher than 1 μM and less than 50 μM
From the text: The RSV subgenomic replicon 395 HeLa and APC126 were licensed from Apath (Brooklyn, N.Y.) and were originally developed by Dr. Mark Meeples of Center for Vaccines & Immunity, the Research Institute at Nationwide Children's Hospital in Columbus, Ohio. To generate subgenomic RSV replicon, three glycoprotein genes, those for SH, G, and F, from a full-length recombinant GFP-expressing (rg) RSV antigenomic cDNA were deleted. In their place, a blasticidin S deaminase (bsd) gene was inserted. Through multiple steps, the RSV replicon was established in HeLa cells (395 Hela) or BHK cells (APC126). Both 395 HeLa and APC126 cells were cultured in Dulbecco's Modified Eagle Medium (DMEM) containing 4500 mg/L D-glucose, L-glutamine, and 110 mg/L sodium pyruvate (Invitrogen, Cat. #11995-040). The medium was further supplemented with 10% (v/v) fetal bovine serum (FBS) (Mediatech, Cat. #35-010-CV), 1% (v/v) penicillin/streptomycin (Mediatech, Cat. #30-002-CI), and 10 μg/mL of Blasticidin (BSD) (Invivogen, Cat. code ant-bl-1). Cells were maintained at 37° C. in a humidified 5% CO2 atmosphere.
Determination of 50% inhibitory concentration (EC50), 90% inhibitory concentration (EC90) and 50% cytotoxic concentration (CC50) in RSV replicon cells were performed by the following procedure. On the first day, 5000 RSV replicon cells per well were plated in a 96-well plate. On the following day, compounds to be tested were solubilized in 100% DMSO to 100X the desired final testing concentration. Each compound was serially diluted (1:3) up to 9 distinct concentrations. Compounds in 100% DMSO were reduced to 10% (v/v) DMSO by diluting 1:10 in cell culture media. A 10 μL sample of the compounds diluted to 10% (v/v) DMSO with cell culture media was used to treat the RSV replicon cells in 96-well format. The final DMSO concentration was 1% (v/v). Cells were incubated with compounds for 7 days (for 395Hela) or 3 days (for APC126) at 37° C. in a 5% CO2 atmosphere. In each assay, positive control that was previously characterized in the RSV replicon assay was included.
The Renilla Luciferase Assay System (Promega, Cat. #E2820) was used to measure anti-RSV replicon activity. Assay plates were set up as stated above. Luminescence was recorded using a Perkin Elmer multilabel counter Victor3V. EC50, the concentration of the drug required for reducing RSV replicon RNA by 50% in relation to the untreated cell control value, was calculated from the plot of percentage reductions of the […] against the drug concentrations using the Microsoft Excel forecast function.

[2] = Cytotoxicity determination (CCK-8, without addition of virus); format: cell-based; conditions: human, HEp-2 cells (uninfected), no virus, Table C = greater than 100 μM, Table D = equal to or less than 100 μM and greater than 10 μM
Method: CPE reduction assays are performed as described by Sidwell and Huffman et al., Appl. Microbiol. (1971) 22(5):797-801 with slight modifications. HEp-2 cells (ATCC#, CCL-23) are seeded at a density of 1,500 cells/30 μL/well into the 384-well cell plate(s) (Corning#3701) one day prior to the assay. Compounds are added into 384-well cell plates by Labcyte POD 810 Plate Assembler system. Each of the test compounds is provided to duplicate wells of a 384-well cell plate at final concentrations starting from 100 μM or 1 μM using 1/3 stepwise dilutions for 9 points. Quick-thaw Respiratory Syncytial Virus (RSV) long strain (ATCC#VR-26) stock in a 37° C. water bath. Place on ice until ready to use. Viruses are diluted to the concentration of 100 TCID50/30 μL with medium and 30 μl diluted RSV are added into related wells of 384-well cell plates. For each plate, sixteen wells are set aside as uninfected, untreated cell controls (CC), and nine wells per test plate receive virus only as a control for virus replication (VC). The final DMSO concentration of all wells is 1%. Place the plates at 37° C., 5% CO2 for 5 days.
In order to determine the compound cytotoxicity, in parallel, each of the compounds is applied to duplicate wells in a 384-well cell plate at serial final concentrations starting from 100 μM using ½ stepwise dilutions for 7 points without addition of virus. Incubate the cells at 37° C., 5% CO2 for 5 days. Add 6 μL CCK-8 into each well and incubate in a CO2 incubator at 37° C. for 3-4 h. Read the plates to obtain the optical densities which are used to calculate 50% cytotoxicity concentration (CC50).

Chain of recombinant RSV complex (P28887 whole entry): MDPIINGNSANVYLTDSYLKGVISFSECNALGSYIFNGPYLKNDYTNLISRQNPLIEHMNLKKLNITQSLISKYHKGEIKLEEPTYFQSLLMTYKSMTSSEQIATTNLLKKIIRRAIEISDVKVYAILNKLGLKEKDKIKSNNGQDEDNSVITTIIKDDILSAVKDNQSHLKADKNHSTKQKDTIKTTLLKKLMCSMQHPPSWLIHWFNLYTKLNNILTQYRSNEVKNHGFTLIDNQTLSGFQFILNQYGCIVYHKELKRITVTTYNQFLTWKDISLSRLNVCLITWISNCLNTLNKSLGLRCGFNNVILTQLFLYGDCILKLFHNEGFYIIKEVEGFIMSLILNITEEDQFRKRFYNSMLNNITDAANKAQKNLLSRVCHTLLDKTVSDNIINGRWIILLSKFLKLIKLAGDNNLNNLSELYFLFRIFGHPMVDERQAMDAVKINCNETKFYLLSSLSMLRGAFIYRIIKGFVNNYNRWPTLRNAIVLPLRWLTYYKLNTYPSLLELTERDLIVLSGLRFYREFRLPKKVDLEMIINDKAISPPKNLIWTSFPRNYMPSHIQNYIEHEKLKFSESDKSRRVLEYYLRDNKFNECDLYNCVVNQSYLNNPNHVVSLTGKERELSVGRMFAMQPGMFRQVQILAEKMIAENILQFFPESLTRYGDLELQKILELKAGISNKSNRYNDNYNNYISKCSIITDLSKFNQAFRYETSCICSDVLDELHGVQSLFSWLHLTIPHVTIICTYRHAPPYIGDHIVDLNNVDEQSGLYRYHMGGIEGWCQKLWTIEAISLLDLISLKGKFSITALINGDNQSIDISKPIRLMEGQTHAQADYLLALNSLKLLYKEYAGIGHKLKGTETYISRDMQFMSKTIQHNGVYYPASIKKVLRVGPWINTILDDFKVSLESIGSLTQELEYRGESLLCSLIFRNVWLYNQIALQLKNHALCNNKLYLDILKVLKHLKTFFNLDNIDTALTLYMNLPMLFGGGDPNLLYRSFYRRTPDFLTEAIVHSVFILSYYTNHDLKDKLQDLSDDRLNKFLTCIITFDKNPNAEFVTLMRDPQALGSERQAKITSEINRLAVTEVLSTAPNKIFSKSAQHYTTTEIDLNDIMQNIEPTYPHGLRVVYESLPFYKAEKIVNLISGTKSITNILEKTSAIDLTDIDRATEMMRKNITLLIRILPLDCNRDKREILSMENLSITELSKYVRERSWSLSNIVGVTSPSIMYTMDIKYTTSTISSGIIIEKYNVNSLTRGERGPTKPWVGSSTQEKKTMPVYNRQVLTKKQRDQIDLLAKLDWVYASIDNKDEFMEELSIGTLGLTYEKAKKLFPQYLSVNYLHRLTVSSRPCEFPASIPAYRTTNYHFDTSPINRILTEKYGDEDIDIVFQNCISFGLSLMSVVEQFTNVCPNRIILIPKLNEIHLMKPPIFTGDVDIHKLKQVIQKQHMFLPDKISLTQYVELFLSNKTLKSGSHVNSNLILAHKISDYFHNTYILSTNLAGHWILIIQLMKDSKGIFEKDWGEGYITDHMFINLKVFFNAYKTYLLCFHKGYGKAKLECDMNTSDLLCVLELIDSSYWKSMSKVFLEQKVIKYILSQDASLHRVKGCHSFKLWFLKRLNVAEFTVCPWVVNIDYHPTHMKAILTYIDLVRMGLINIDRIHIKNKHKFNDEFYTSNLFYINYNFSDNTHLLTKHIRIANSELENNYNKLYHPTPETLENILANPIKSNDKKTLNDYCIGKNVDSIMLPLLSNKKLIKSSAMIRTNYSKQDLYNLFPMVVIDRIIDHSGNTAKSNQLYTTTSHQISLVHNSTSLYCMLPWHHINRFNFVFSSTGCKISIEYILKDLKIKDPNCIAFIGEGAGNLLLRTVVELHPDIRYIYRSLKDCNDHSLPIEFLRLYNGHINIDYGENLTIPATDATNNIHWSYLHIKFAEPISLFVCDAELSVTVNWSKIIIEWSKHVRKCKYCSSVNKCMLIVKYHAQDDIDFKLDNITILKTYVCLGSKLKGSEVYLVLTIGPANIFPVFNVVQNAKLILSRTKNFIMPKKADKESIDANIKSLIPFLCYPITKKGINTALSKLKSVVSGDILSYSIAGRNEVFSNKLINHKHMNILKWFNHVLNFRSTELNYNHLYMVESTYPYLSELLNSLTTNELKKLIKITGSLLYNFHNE
Chain of recombinant RSV complex (P03421 whole entry, further chain): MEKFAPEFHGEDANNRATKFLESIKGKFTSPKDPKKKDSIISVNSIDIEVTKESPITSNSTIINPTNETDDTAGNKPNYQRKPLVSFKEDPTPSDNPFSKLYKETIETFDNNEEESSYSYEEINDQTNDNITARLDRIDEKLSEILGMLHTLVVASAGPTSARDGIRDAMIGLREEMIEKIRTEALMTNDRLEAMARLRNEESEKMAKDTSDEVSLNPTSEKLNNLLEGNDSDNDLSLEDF

`C[C@@]1(N)COc2c1cc(C(O)(CNC(=O)c1ccc3[nH]ccc3c1)C(F)(F)F)nc2-c1ccc(F)cc1` (stereo partly drawn) [Compound 16] gave an IC50 (recombinant RSV complex) of less than 1 µM, an EC50 [1] of less than 1 µM and a CC50 at 5 days [2] of 10 to 100 µM.

With `COc1cc(C(=O)NC[C@@](O)(c2cc3c(c(-c4ccc(F)cc4)n2)NC[C@@]3(C)N)C(F)(F)F)ccc1OCC(N)=O` [Compound 72] the IC50 (recombinant RSV complex) was less than 1 µM, the EC50 [1] was less than 1 µM and the CC50 at 5 days [2] was greater than 100 µM.

`COc1cc(C(=O)NCC(O)(c2cc(N3CCNCC3)cc(-c3ccc(F)cc3)n2)C(F)(F)F)ccc1OCCO` (stereo not drawn) [Compound 138] showed an IC50 (recombinant RSV complex) of less than 1 µM, an EC50 [1] of 1 to 50 µM and a CC50 at 5 days [2] of 10 to 100 µM.

In the case of `C[C@@]1(N)COc2c1cc([C@](O)(CNC(=O)c1cc(OCCO)c3ncccc3c1)C(F)(F)F)nc2-c1ccc(F)cc1` [Compound 80], the IC50 (recombinant RSV complex) is reported as less than 1 µM, the EC50 [1] is reported as less than 1 µM and the CC50 at 5 days [2] is reported as 10 to 100 µM.

Work on `CC(C)(N)c1cc(-c2ccc(F)cc2)nc(C(N)(CNC(=O)c2ccc(OC3CC3)c(OCCO)c2)C(F)(F)F)c1` (stereo not drawn) [Compound 41] yielded an IC50 (recombinant RSV complex) of less than 1 µM, an EC50 [1] of less than 1 µM and a CC50 at 5 days [2] of 10 to 100 µM.

With `COc1cc(C(=O)NCC(O)(c2cc3c(c(-c4ccc(F)cc4)n2)OCC3(C)N)C(F)(F)F)ccc1NC1CC1` (stereo not drawn) [Compound 31] the IC50 (recombinant RSV complex) was less than 1 µM, the EC50 [1] was less than 1 µM and the CC50 at 5 days [2] was 10 to 100 µM.

For `C[C@@]1(N)CNc2c1cc([C@](O)(CNC(=O)c1ccc(OC3CC3)c(OC3CC3)c1)C(F)(F)F)nc2-c1ccc(F)cc1` [Compound 62], the IC50 (recombinant RSV complex) was less than 50 µM, the EC50 [1] was less than 1 µM and the CC50 at 5 days [2] was 10 to 100 µM.

`COc1cc(C(=O)NC[C@@](O)(c2cc3c(c(-c4ccc(F)cc4)n2)NC[C@@]3(C)N)C(F)(F)F)ccc1OC1CC1` [Compound 127] gave an IC50 (recombinant RSV complex) of less than 1 µM, an EC50 [1] of less than 1 µM and a CC50 at 5 days [2] of 10 to 100 µM.

Work on `COc1ccc(C(=O)NCC(O)(c2cc(C(C)(C)N)cc(-c3ccc(F)cc3)n2)C(F)(F)F)cc1OC[C@@H](C)O` (stereo partly drawn) [Compound 39] yielded an IC50 (recombinant RSV complex) of less than 1 µM, an EC50 [1] of less than 1 µM and a CC50 at 5 days [2] of 10 to 100 µM.

`COc1cc(C(=O)NCC(O)(c2cc3c(c(-c4ccc(F)cc4)n2)OCCC3(C)N)C(F)(F)F)ccc1OCC(C)O` (single isomer, unassigned) [Compound 86] showed an IC50 (recombinant RSV complex) of less than 1 µM, an EC50 [1] of 1 to 50 µM and a CC50 at 5 days [2] of 10 to 100 µM.

`COc1cc(C(=O)NCC(O)(c2cc3c(c(-c4ccc(F)cc4)n2)OCC3(C)N)C(F)(F)F)cc2c1NC(=O)CC2` (stereo not drawn) [Compound 11] gave an IC50 (recombinant RSV complex) of less than 1 µM, an EC50 [1] of less than 1 µM and a CC50 at 5 days [2] of 10 to 100 µM.

`COc1cnc(C(=O)NCC(O)(c2cc3c(c(-c4ccc(F)cc4)n2)OCC3(C)N)C(F)(F)F)cc1OC` (stereo not drawn) [Compound 20] gave an IC50 (recombinant RSV complex) of less than 1 µM, an EC50 [1] of less than 1 µM and a CC50 at 5 days [2] of 10 to 100 µM.

For `COc1cc(C(=O)NC[C@@](O)(c2cc([C@]3(C)CCN3)cc(-c3ccc(F)cc3)n2)C(F)(F)F)ccc1OC[C@@H](C)O` (racemic) [Compound 14], the IC50 (recombinant RSV complex) was less than 1 µM, the EC50 [1] was less than 1 µM and the CC50 at 5 days [2] was 10 to 100 µM.

`COc1cc(C(=O)NC[C@@](O)(c2cc3c(c(-c4ccc(F)cc4)n2)OC[C@@]3(C)N)C(F)(F)F)cc2ccc(C(C)(C)O)nc12` [Compound 90] gave an IC50 (recombinant RSV complex) of less than 1 µM, an EC50 [1] of less than 1 µM and a CC50 at 5 days [2] of 10 to 100 µM.
